This series concerns rodent lifetime carcinogenesis bioassay, tumor incidence TD50. Nature of the series: chronic cancer bioassays in animals – CPDB, compiled studies (AID 1745844).

Molecules are shown by their SMILES. Calls of active or inactive are those of the source. The rule behind the calls is not given here.

As a reminder, the TD50 is the 50% point of the dose-response relation for the toxic effect studied. In the case of `O=S(=O)(Oc1ccc(Cl)cc1Cl)c1ccccc1`, the TD50 reads like this: (mouse, strain B6AKF1, females, oral dosing, site: any site (literature study), lesion: several types, types named in the paper, dosed 76 weeks, study length 76 weeks) 867 mg/kg/day (inactive); (mouse, strain B6AKF1, females, oral dosing, site: lung, lesion: several types, types named in the paper, dosed 76 weeks, study length 76 weeks) 1920 mg/kg/day (inactive); (mouse, strain B6AKF1, males, oral dosing, site: any site (literature study), lesion: several types, types named in the paper, dosed 76 weeks, study length 76 weeks) 1680 mg/kg/day (inactive); (mouse, strain B6AKF1, males, oral dosing, site: lung, lesion: adenoma, dosed 76 weeks, study length 76 weeks) 866 mg/kg/day (inactive); (mouse, strain B6C3F1, females, oral dosing, site: any site (literature study), lesion: several types, types named in the paper, dosed 76 weeks, study length 76 weeks) 929 mg/kg/day (inactive); (mouse, strain B6C3F1, females, oral dosing, site: lung, lesion: adenoma, dosed 76 weeks, study length 76 weeks) 1920 mg/kg/day (inactive). The TD50 (mouse, strain B6C3F1, males, oral dosing, site: any site (literature study), lesion: several types, types named in the paper, dosed 76 weeks, study length 76 weeks) was 218 mg/kg/day (inactive); the TD50 (mouse, strain B6C3F1, males, oral dosing, site: liver, lesion: hepatoma, dosed 76 weeks, study length 76 weeks) was 266 mg/kg/day (inactive); the TD50 (mouse, strain B6C3F1, males, oral dosing, site: lung, lesion: adenoma, dosed 76 weeks, study length 76 weeks) is 924 mg/kg/day (inactive). Besides, the carcinogen call runs as follows: (mouse, strain B6AKF1, females, oral dosing, site: liver, lesion: hepatoma, dosed 76 weeks, study length 76 weeks) “negative (inactive)”; (mouse, strain B6AKF1, males, oral dosing, site: liver, lesion: hepatoma, dosed 76 weeks, study length 76 weeks) “negative (inactive)”; (mouse, strain B6C3F1, females, oral dosing, site: liver, lesion: hepatoma, dosed 76 weeks, study length 76 weeks) “negative (inactive)”.

For the compound `CNCCc1ccc(OC(=O)C(C)C)c(OC(=O)C(C)C)c1`, the carcinogen call reads like this: (rat, strain Charles River CD (Sprague-Dawley), females, by gavage, site: adrenal gland, lesion: cortical adenoma, dosed 104 weeks, study length 104 weeks) “negative (inactive)”; (rat, strain Charles River CD (Sprague-Dawley), females, by gavage, site: adrenal gland, lesion: pheochromocytoma, malignant, dosed 104 weeks, study length 104 weeks) “negative (inactive)”; (rat, strain Charles River CD (Sprague-Dawley), females, by gavage, site: mammary gland, lesion: adenocarcinoma, dosed 104 weeks, study length 104 weeks) “negative (inactive)”; (rat, strain Charles River CD (Sprague-Dawley), females, by gavage, site: mammary gland, lesion: adenoma, dosed 104 weeks, study length 104 weeks) “negative (inactive)”; (rat, strain Charles River CD (Sprague-Dawley), females, by gavage, site: pituitary gland, lesion: adenoma, dosed 104 weeks, study length 104 weeks) “negative (inactive)”; (rat, strain Charles River CD (Sprague-Dawley), males, by gavage, site: adrenal gland, lesion: cortical adenoma, dosed 104 weeks, study length 104 weeks) “negative (inactive)”. Under “rat, strain Charles River CD (Sprague-Dawley), males, by gavage, site: adrenal gland, lesion: pheochromocytoma, malignant, dosed 104 weeks, study length 104 weeks”, the carcinogen call was “negative (inactive)”. Besides, where the note is “rat, strain Charles River CD (Sprague-Dawley), males, by gavage, site: pituitary gland, lesion: adenoma, dosed 104 weeks, study length 104 weeks”, the TD50 is 30.2 mg/kg/day (inactive).

With `Cc1cc(Cc2ccc(N)c(C)c2)ccc1N`, the TD50 was 96.3 mg/kg/day (rat, strain Charles River CD (Sprague-Dawley), females, in feed, site: liver, lesion: cholangiocarcinoma, dosed 82 weeks, study length 82 weeks); 30.5 mg/kg/day (rat, strain Charles River CD (Sprague-Dawley), females, in feed, site: liver, lesion: hepatocellular adenoma, dosed 82 weeks, study length 82 weeks); 7.92 mg/kg/day (rat, strain Charles River CD (Sprague-Dawley), females, in feed, site: liver, lesion: hepatocellular carcinoma, dosed 82 weeks, study length 82 weeks); 35.2 mg/kg/day (rat, strain Charles River CD (Sprague-Dawley), males, in feed, site: liver, lesion: hemangioma, dosed 68 weeks, study length 68 weeks); 17 mg/kg/day (rat, strain Charles River CD (Sprague-Dawley), males, in feed, site: liver, lesion: hepatocellular adenoma, dosed 68 weeks, study length 68 weeks); 12.4 mg/kg/day (rat, strain Charles River CD (Sprague-Dawley), males, in feed, site: liver, lesion: hepatocellular carcinoma, dosed 68 weeks, study length 68 weeks). For the same compound, the TD50 is 6.91 mg/kg/day (rat, strain Charles River CD (Sprague-Dawley), males, in feed, site: mammary gland, lesion: fibroadenoma, dosed 68 weeks, study length 68 weeks) and 8.19 mg/kg/day (rat, strain Charles River CD (Sprague-Dawley), males, in feed, site: skin, lesion: fibroma, dosed 68 weeks, study length 68 weeks).

Regarding `NC(=O)N(CCO)N=O`, the TD50 (mouse, strain Swiss, females, in drinking water, site: all sites, lesion: lymphoma, dosed 50 weeks, study length 51 weeks) is 0.603 mg/kg/day; the TD50 (mouse, strain Swiss, females, in drinking water, site: lung, lesion: adenoma, dosed 50 weeks, study length 51 weeks) stood at 1.97 mg/kg/day; the TD50 (mouse, strain Swiss, males, in drinking water, site: all sites, lesion: lymphoma, dosed 50 weeks, study length 51 weeks) is 1.27 mg/kg/day; the TD50 (mouse, strain Swiss, males, in drinking water, site: any site (literature study), lesion: one or several types, types not named, dosed 50 weeks, study length 51 weeks) is 0.353 mg/kg/day; the TD50 (mouse, strain Swiss, males, in drinking water, site: lung, lesion: adenoma, dosed 50 weeks, study length 51 weeks) was 0.382 mg/kg/day; the TD50 (rat, strain Fischer 344, females, by gavage, site: Zymbal's gland, lesion: carcinoma, dosed 37 weeks, study length 60 weeks) is 3.15 mg/kg/day. The TD50 (rat, strain Fischer 344, females, by gavage, site: colon, lesion: adenoma, dosed 37 weeks, study length 60 weeks) was found to be 1.53 mg/kg/day; the TD50 (rat, strain Fischer 344, females, by gavage, site: forestomach, lesion: squamous-cell carcinoma, dosed 37 weeks, study length 60 weeks) is 3.15 mg/kg/day; the TD50 (rat, strain Fischer 344, females, by gavage, site: mammary gland, lesion: adenocarcinoma, dosed 37 weeks, study length 60 weeks) was 0.452 mg/kg/day; the TD50 (rat, strain Fischer 344, males, by gavage, site: Zymbal's gland, lesion: carcinoma, dosed 37 weeks, study length 55 weeks) amounted to 0.879 mg/kg/day; the TD50 (rat, strain Fischer 344, males, by gavage, site: Zymbal's gland, lesion: several types, types named in the paper, dosed 37 weeks, study length 55 weeks) amounted to 0.568 mg/kg/day; the TD50 (rat, strain Fischer 344, males, by gavage, site: colon, lesion: adenocarcinoma, dosed 37 weeks, study length 55 weeks) amounted to 0.983 mg/kg/day. For the same compound, the TD50 was 0.24 mg/kg/day (rat, strain Fischer 344, males, by gavage, site: colon, lesion: several types, types named in the paper, dosed 37 weeks, study length 55 weeks); 0.203 mg/kg/day (rat, strain Fischer 344, males, by gavage, site: forestomach, lesion: several types, types named in the paper, dosed 37 weeks, study length 55 weeks); 0.637 mg/kg/day (rat, strain Fischer 344, males, by gavage, site: forestomach, lesion: squamous-cell carcinoma, dosed 37 weeks, study length 55 weeks); 0.602 mg/kg/day (rat, strain Fischer 344, males, by gavage, site: lung, lesion: malignant tumor, dosed 37 weeks, study length 55 weeks); 0.0776 mg/kg/day (rat, strain Fischer 344, males, by gavage, site: lung, lesion: several types, types named in the paper, dosed 37 weeks, study length 55 weeks); 3.16 mg/kg/day (rat, strain MRC-Wistar, females, in drinking water, site: all sites, lesion: B-cell lymphoma, dosed 39 weeks, study length 85 weeks). The TD50 is, setting by setting: (rat, strain MRC-Wistar, females, in drinking water, site: all sites, lesion: myelocytic leukemia, dosed 39 weeks, study length 85 weeks) 3.16 mg/kg/day (inactive); (rat, strain MRC-Wistar, females, in drinking water, site: any site (literature study), lesion: one or several types, types not named, dosed 39 weeks, study length 85 weeks) 0.32 mg/kg/day; (rat, strain MRC-Wistar, females, in drinking water, site: liver, lesion: one or several types, types not named, dosed 39 weeks, study length 85 weeks) 10 mg/kg/day; (rat, strain MRC-Wistar, males, in drinking water, site: all sites, lesion: B-cell lymphoma, dosed 39 weeks, study length 85 weeks) 1.56 mg/kg/day; (rat, strain MRC-Wistar, males, in drinking water, site: all sites, lesion: lymphocytic lymphoma, dosed 52 weeks, study length 70 weeks) 2.03 mg/kg/day; (rat, strain MRC-Wistar, males, in drinking water, site: all sites, lesion: malignant lymphoma, dosed 52 weeks, study length 70 weeks) 2.03 mg/kg/day. Moreover, the TD50 by setting is: (rat, strain MRC-Wistar, males, in drinking water, site: all sites, lesion: myelocytic leukemia, dosed 39 weeks, study length 85 weeks) 2.02 mg/kg/day (inactive); (rat, strain MRC-Wistar, males, in drinking water, site: any site (literature study), lesion: one or several types, types not named, dosed 39 weeks, study length 85 weeks) 0.195 mg/kg/day; (rat, strain MRC-Wistar, males, in drinking water, site: any site (literature study), lesion: several types, types named in the paper, dosed 52 weeks, study length 70 weeks) 0.36 mg/kg/day; (rat, strain MRC-Wistar, males, in drinking water, site: bone, lesion: osteosarcoma, dosed 39 weeks, study length 85 weeks) 1.56 mg/kg/day; (rat, strain MRC-Wistar, males, in drinking water, site: bone, lesion: osteosarcoma, dosed 52 weeks, study length 70 weeks) 1.52 mg/kg/day; (rat, strain MRC-Wistar, males, in drinking water, site: liver, lesion: one or several types, types not named, dosed 39 weeks, study length 85 weeks) 2.77 mg/kg/day. Further, the TD50 is 15.9 mg/kg/day (rat, strain Wistar, males, in drinking water, site: all sites, lesion: B-cell lymphoma, dosed 90 weeks, study length 90 weeks); 3.66 mg/kg/day (rat, strain Wistar, males, in drinking water, site: all sites, lesion: myelocytic leukemia, dosed 90 weeks, study length 90 weeks); 0.576 mg/kg/day (rat, strain Wistar, males, in drinking water, site: any site (literature study), lesion: one or several types, types not named, dosed 90 weeks, study length 90 weeks); 4.93 mg/kg/day (rat, strain Wistar, males, in drinking water, site: kidney, lesion: one or several types, types not named, dosed 90 weeks, study length 90 weeks); 1.59 mg/kg/day (rat, strain Wistar, males, in drinking water, site: lung, lesion: one or several types, types not named, dosed 90 weeks, study length 90 weeks); 4.14 mg/kg/day (rat, strain Wistar, males, in drinking water, site: mammary gland, lesion: adenocarcinoma, dosed 90 weeks, study length 90 weeks).

For the origin of these results see PubChem BioAssay AID1745844 (Carcinogenic Potency Database (CPDB), 2022).
